# According to patent US11180474B2 (BRISTOL-MYERS SQUIBB COMPANY, priority 2016, dated 2021):
# Target: T1, human TLR8 (Homo sapiens, UniProt Q9NR97)
# T1 construct: host or cells: HEK-Blue cells
# T1 sequence (Q9NR97 27-1041): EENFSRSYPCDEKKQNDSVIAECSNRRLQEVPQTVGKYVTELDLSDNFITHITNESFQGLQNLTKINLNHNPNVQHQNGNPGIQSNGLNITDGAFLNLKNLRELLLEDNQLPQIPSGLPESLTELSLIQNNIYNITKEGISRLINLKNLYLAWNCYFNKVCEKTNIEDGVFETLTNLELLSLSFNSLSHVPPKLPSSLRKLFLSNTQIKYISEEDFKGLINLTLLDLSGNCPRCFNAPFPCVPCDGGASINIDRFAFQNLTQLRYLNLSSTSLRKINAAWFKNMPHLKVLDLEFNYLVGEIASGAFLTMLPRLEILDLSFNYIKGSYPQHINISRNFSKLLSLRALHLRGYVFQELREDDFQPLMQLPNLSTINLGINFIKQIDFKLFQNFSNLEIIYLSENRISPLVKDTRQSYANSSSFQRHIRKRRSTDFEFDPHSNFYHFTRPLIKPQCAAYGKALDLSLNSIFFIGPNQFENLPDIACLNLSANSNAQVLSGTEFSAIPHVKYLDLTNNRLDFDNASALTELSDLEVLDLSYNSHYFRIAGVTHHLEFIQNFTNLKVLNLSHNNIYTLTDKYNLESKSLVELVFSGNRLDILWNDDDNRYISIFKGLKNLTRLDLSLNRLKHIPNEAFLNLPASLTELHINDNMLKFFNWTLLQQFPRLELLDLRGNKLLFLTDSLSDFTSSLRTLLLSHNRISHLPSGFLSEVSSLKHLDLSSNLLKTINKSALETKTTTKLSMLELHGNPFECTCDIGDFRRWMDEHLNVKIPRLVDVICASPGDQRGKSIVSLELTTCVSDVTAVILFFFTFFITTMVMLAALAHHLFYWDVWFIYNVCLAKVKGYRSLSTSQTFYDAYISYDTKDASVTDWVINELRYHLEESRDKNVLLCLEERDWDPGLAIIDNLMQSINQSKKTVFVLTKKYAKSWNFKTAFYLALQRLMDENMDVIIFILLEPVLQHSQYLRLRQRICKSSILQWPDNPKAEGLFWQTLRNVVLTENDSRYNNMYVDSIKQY
# Test: TLR8 inhibition reporter assay (HEK-Blue cells, SEAP reporter, R848 stimulation)
# Format: cell-based
# Conditions: HEK-Blue cells overexpressing human TLR8, R848 15.9 μM
# How it was run: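 SEAP readout via HEK-Blue Detection medium after 22 h at 37 °C, 5% CO2 defines inhibition, normalized between agonist-plus-DMSO wells and a reference inhibitor. Compound dose range 0.05 nM–50 μM; TLR7 cells at 15,000/well (gardiquimod), TLR8 at 20,000/well (R848).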
row,IC50 [µM],Compound
1,0.081,"COc1ccc(-c2[nH]c3ccc(C4CCN(CC(=O)NCCc5ccc(S(N)(=O)=O)cc5)CC4)cc3c2CC(F)(F)F)cc1OC [Example 384, 2-(4-(2-(3,4-dimethoxyphenyl)-3-(2,2,2-trifluoroethyl)-1H-indol-5-yl)piperidin-1-yl)-N-(4-sulfamoylphenethyl)acetamide]"
2,0.221,"COc1ccc(-c2[nH]c3ccc(C4CCN(C(=O)CCCn5ccnc5)CC4)cc3c2CC(F)(F)F)cc1OC [Example 331, 1-(4-(2-(3,4-dimethoxyphenyl)-3-(2,2,2-trifluoroethyl)-1H-indol-5-yl)piperidin-1-yl)-4-(1H-imidazol-1-yl)butan-1-one]"
3,9.39,"COc1ccc(-c2[nH]c3ccc(C4CCN(C(=O)Cc5nnn[nH]5)CC4)cc3c2CC(F)(F)F)cc1OC [Example 341, 1-(4-(2-(3,4-dimethoxyphenyl)-3-(2,2,2-trifluoroethyl)-1H-indol-5-yl)piperidin-1-yl)-2-(1H-tetrazol-5-yl)ethan-1-one]"
4,0.025,"CCN(CCN(C)C)C(=O)CN1CCC(c2ccc3[nH]c(-c4ccc(OC)c(OC)c4)c(CC(F)(F)F)c3c2)CC1 [Example 372, 2-(4-(2-(3,4-dimethoxyphenyl)-3-(2,2,2-trifluoroethyl)-1H-indol-5-yl)piperidin-1-yl)-N-(2-(dimethylamino)ethyl)-N-ethylacetamide]"
5,0.964,"COc1ccc(-c2[nH]c3ccc(C4CCN(C(=O)C[C@@H](C)O)CC4)cc3c2CC(F)(F)F)cc1OC [Example 353, (R)-1-(4-(2-(3,4-dimethoxyphenyl)-3-(2,2,2-trifluoroethyl)-1H-indol-5-yl)piperidin-1-yl)-3-hydroxybutan-1-one]"
6,3.75,"CCN(CC)C(=O)C1CCCN(CC(=O)N2CCC(c3ccc4[nH]c(-c5ccc(OC)c(OC)c5)c(C)c4c3)CC2)C1 (centres unmarked) [Example 404, 1-(2-(4-(2-(3,4-dimethoxyphenyl)-3-methyl-1H-indol-5-yl)piperidin-1-yl)-2-oxoethyl)-N,N-diethylpiperidine-3-carboxamide]"
7,0.084,"COc1ccc(-c2[nH]c3ccc(C4CCN(C(=O)CCN5CCCCC5)CC4)cc3c2CC(F)(F)F)cc1OC [Example 330, 1-(4-(2-(3,4-dimethoxyphenyl)-3-(2,2,2-trifluoroethyl)-1H-indol-5-yl)piperidin-1-yl)-3-(piperidin-1-yl)propan-1-one]"
8,0.082,"COc1ccc(-c2[nH]c3ccc(C4CCN(C(=O)CN(C)C)CC4)cc3c2CC(F)(F)F)cc1OC [Example 354, 1-(4-(2-(3,4-dimethoxyphenyl)-3-(2,2,2-trifluoroethyl)-1H-indol-5-yl)piperidin-1-yl)-2-(dimethylamino)ethan-1-one]"
9,0.022,"COc1ccc(-c2[nH]c3ccc(C4CCNCC4F)cc3c2C(C)C)cc1OC (single isomer, unassigned) [Example 322, 2-(3,4-dimethoxyphenyl)-5-(3-fluoropiperidin-4-yl)-3-isopropyl-1H-indole]"
10,0.019,"COc1ccc(-c2[nH]c3ccc(C4CCNCC4)cc3c2CC(F)(F)F)cc1OC [Example 329, 2-(3,4-dimethoxyphenyl)-5-(piperidin-4-yl)-3-(2,2,2-trifluoroethyl)-1H-indole]"
11,0.03,"COc1ccc(-c2[nH]c3ccc(C4CCN(CC(=O)NCCCn5ccnc5)CC4)cc3c2CC(F)(F)F)cc1OC [Example 383, N-(3-(1H-imidazol-1-yl)propyl)-2-(4-(2-(3,4-dimethoxyphenyl)-3-(2,2,2-trifluoroethyl)-1H-indol-5-yl)piperidin-1-yl)acetamide]"
12,0.055,"COc1ccc(-c2[nH]c3ccc(C4CCN(CC(=O)N(C)C5CCN(C)C5)CC4)cc3c2CC(F)(F)F)cc1OC (centres unmarked) [Example 370, 2-(4-(2-(3,4-dimethoxyphenyl)-3-(2,2,2-trifluoroethyl)-1H-indol-5-yl)piperidin-1-yl)-N-methyl-N-(1-methylpyrrolidin-3-yl)acetamide]"
13,0.124,"COc1ccc(-c2[nH]c3ccc(C4CCNCC4F)cc3c2C(C)C)cc1OC (racemic) [Example 320, 2-(3,4-dimethoxyphenyl)-5-(3-fluoropiperidin-4-yl)-3-isopropyl-1H-indole]"
14,0.196,"CCN(CC)C(=O)C1CCCN(CC(=O)N2CCC(c3ccc4[nH]c(-c5ccc(OC)c(OC)c5)c(C5CCOCC5)c4c3)CC2)C1 (centres unmarked) [Example 392, 1-(2-(4-(2-(3,4-dimethoxyphenyl)-3-(tetrahydro-2H-pyran-4-yl)-1H-indol-5-yl)piperidin-1-yl)-2-oxoethyl)-N,N-diethylpiperidine-3-carboxamide]"
15,0.041,"COc1ccc(-c2[nH]c3ccc(C4CCN(CC(=O)NCC(N)=O)CC4)cc3c2CC(F)(F)F)cc1OC [Example 385, N-(2-amino-2-oxoethyl)-2-(4-(2-(3,4-dimethoxyphenyl)-3-(2,2,2-trifluoroethyl)-1H-indol-5-yl)piperidin-1-yl)acetamide]"
16,0.065,"COc1ccc(-c2[nH]c3ccc(C4CCN(CC(=O)NCCCN5CCCC5=O)CC4)cc3c2CC(F)(F)F)cc1OC [Example 376, 2-(4-(2-(3,4-dimethoxyphenyl)-3-(2,2,2-trifluoroethyl)-1H-indol-5-yl)piperidin-1-yl)-N-(3-(2-oxopyrrolidin-1-yl)propyl)acetamide]"
17,0.076,"COc1ccc(-c2[nH]c3ccc(C4CCN(CC(=O)N5CCC(N(C)C)CC5)CC4)cc3c2CC(F)(F)F)cc1OC [Example 364, 2-(4-(2-(3,4-dimethoxyphenyl)-3-(2,2,2-trifluoroethyl)-1H-indol-5-yl)piperidin-1-yl)-1-(4-(dimethylamino)piperidin-1-yl)ethan-1-one]"
18,0.697,"COc1ccc(-c2[nH]c3ccc(C4CCN(C(=O)[C@@H]5CCCN5C(C)=O)CC4)cc3c2CC(F)(F)F)cc1OC [Example 336, (S)-1-(2-(4-(2-(3,4-dimethoxyphenyl)-3-(2,2,2-trifluoroethyl)-1H-indol-5-yl)piperidine-1-carbonyl)pyrrolidin-1-yl)ethan-1-one]"
19,0.767,"COc1ccc(-c2[nH]c3ccc(C4CCN(C(=O)CS(C)(=O)=O)CC4)cc3c2CC(F)(F)F)cc1OC [Example 347, 1-(4-(2-(3,4-dimethoxyphenyl)-3-(2,2,2-trifluoroethyl)-1H-indol-5-yl)piperidin-1-yl)-2-(methylsulfonyl)ethan-1-one]"
20,0.204,"CCC(C)NC(=O)CN1CCC(c2ccc3[nH]c(-c4ccc(OC)c(OC)c4)c(CC(F)(F)F)c3c2)CC1 (centres unmarked) [Example 377, N-(sec-butyl)-2-(4-(2-(3,4-dimethoxyphenyl)-3-(2,2,2-trifluoroethyl)-1H-indol-5-yl)piperidin-1-yl)acetamide]"
21,0.035,"COc1ccc(-c2[nH]c3ccc(C4CCN(CC(=O)N5CC[C@H](N(C)C)C5)CC4)cc3c2CC(F)(F)F)cc1OC [Example 374, (S)-2-(4-(2-(3,4-dimethoxyphenyl)-3-(2,2,2-trifluoroethyl)-1H-indol-5-yl)piperidin-1-yl)-1-(3-(dimethylamino)pyrrolidin-1-yl) ethan-1-one]"
22,0.063,"COc1ccc(-c2[nH]c3ccc(C4CCN(CC(=O)N5CCC(N6CCCCC6)CC5)CC4)cc3c2CC(F)(F)F)cc1OC [Example 359, 1-([1,4′-bipiperidin]-1′-yl)-2-(4-(2-(3,4-dimethoxyphenyl)-3-(2,2,2-trifluoroethyl)-1H-indol-5-yl)piperidin-1-yl)ethan-1-one]"
23,1.46,"COc1ccc(-c2[nH]c3ccc(C4CCN(C(=O)Cc5ccc(N(C)C)cc5)CC4)cc3c2CC(F)(F)F)cc1OC [Example 338, 1-(4-(2-(3,4-dimethoxyphenyl)-3-(2,2,2-trifluoroethyl)-1H-indol-5-yl)piperidin-1-yl)-2-(4-(dimethylamino)phenyl)ethan-1-one]"
24,0.02,"COc1ccc(-c2[nH]c3ccc(C4CCNCC4F)cc3c2C(C)C)cc1OC (single isomer, unassigned) [Example 323, 2-(3,4-dimethoxyphenyl)-5-(3-fluoropiperidin-4-yl)-3-isopropyl-1H-indole]"
25,0.057,"COc1ccc(-c2[nH]c3ccc(C4CCN(C(=O)CCCN(C)C)CC4)cc3c2CC(F)(F)F)cc1OC [Example 351, 1-(4-(2-(3,4-dimethoxyphenyl)-3-(2,2,2-trifluoroethyl)-1H-indol-5-yl)piperidin-1-yl)-4-(dimethylamino)butan-1-one]"
26,0.626,"CCNC(=O)N1CCC(c2ccc3[nH]c(-c4ccc(OC)c(OC)c4)c(CC(F)(F)F)c3c2)CC1 [Example 356, 4-(2-(3,4-dimethoxyphenyl)-3-(2,2,2-trifluoroethyl)-1H-indol-5-yl)-N-ethylpiperidine-1-carboxamide]"
